The values that follow come from patent US20230265068A1, “TRANSIENT RECEPTOR POTENTIAL CANONICAL 3 INHIBITORS AND METHODS OF USE THEREOF” (University of Tennessee Research Foundation, priority 2020, published 2023).

What is called half-life is the time needed for the level to fall by half in the phase considered. Lower therefore signals fast loss.

Each structure is given as a SMILES string. Where only a bound is given, the exact number is not on record here.

Series [1] can be described thus: metabolic stability in mouse liver microsomes. In kind it is in vitro ADME. The following applies: mouse, microsomes. The protocol: (§1) The metabolic stability of compound 22 was tested prior to the next phase of in vivo study. […] The maximum tolerated dose (MTD) study was subsequently performed to investigate its in vivo toxicity (FIGS. 4A and 4B). The second major limitation of Pyr3 is its toxicity due to its alkylating tail moiety. While replacing only the fast-metabolizing head ester group in Pyr3 with a stable amide (compound 79) improved metabolic stability, a single IP injection of compound 79 at 200 mg/kg killed all mice within 24 h.
(In general: Liver microsomes are a subcellular fraction often used to study metabolism.)

Series [2] deals with T1, hTRPA1 (Homo sapiens, UniProt O75762).
T1 construct: expressed in transfected cells; host or cells: HEK293, transient transfection, pMO vector
T1 sequence (O75762 whole entry): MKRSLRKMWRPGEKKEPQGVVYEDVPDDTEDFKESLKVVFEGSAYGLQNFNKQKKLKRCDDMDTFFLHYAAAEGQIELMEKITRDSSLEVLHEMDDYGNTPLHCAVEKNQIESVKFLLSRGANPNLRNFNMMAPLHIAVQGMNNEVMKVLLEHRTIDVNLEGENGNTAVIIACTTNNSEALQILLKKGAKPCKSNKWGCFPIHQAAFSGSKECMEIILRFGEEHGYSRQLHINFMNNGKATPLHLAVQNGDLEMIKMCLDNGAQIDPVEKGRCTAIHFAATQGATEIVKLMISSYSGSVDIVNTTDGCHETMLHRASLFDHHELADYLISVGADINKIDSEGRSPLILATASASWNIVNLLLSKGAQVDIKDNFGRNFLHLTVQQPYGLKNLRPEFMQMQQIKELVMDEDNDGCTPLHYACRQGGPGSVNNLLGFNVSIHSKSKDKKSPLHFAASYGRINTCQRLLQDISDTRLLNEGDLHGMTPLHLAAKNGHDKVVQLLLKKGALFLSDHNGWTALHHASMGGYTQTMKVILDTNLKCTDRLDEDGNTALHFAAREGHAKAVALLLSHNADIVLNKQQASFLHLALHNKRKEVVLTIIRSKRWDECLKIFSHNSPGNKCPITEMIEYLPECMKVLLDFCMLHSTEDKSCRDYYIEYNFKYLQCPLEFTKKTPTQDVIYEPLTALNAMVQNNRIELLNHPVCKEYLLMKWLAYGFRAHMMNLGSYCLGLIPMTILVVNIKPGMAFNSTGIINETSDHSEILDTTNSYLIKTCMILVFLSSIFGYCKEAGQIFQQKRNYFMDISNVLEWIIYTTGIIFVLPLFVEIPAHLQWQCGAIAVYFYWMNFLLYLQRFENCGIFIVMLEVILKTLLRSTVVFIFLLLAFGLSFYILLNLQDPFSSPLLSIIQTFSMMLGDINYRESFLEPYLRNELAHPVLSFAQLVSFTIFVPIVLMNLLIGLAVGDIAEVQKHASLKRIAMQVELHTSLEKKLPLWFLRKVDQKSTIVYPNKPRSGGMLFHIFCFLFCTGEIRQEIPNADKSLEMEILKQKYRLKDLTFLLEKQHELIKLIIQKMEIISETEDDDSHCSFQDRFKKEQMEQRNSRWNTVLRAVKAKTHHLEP
Kind of series: whole-cell patch clamp selectivity, HEK 293 cells overexpressing hTRPA1. In kind it is cell-based. Conditions: HEK293, with agonist, solutions without Ca2+, read-out: % of the current of hTRPA1 inhibited. On the procedure: Human embryonic kidney 293 (HEK293; catalog number CRL-1573) cells were cultured in Dulbecco's modified Eagle's medium (Invitrogen) supplemented with 10% fetal bovine serum and 1% penicillin-streptomycin at 37° C. and 5% CO2. Constructs cloned in pMO (a pcDNA3-modified vector) were co-transfected with GFP-pMO, using Lipofectamine 2000 (Invitrogen) according to the manufacturer's instructions. Macroscopic currents in the whole-cell patch clamp configuration were recorded 18-24 h post-transfection. The extracellular solution contained 140 mM NaCl, 6 mM KCl, 2 mM MgCl2, 10 mM HEPES, and 10 mM glucose (pH 7.4). Pipettes were made of borosilicate glass (outer diameter, 1.5 mm; inner diameter, 1.10 mm; Sutter Instruments) and fire-polished with a resistance between 2.8 and 4.0 megaohms when filled with an intracellular solution that contained 140 mM CsCl, 5 mM EGTA, and 10 mM HEPES, pH 7.2. Currents were recorded with a Multiclamp 700B amplifier (Molecular Devices) using a 1-s ramp from −100 to 100 mV. […] Data were acquired with a sampling rate of 20 kHz, low-pass filtered (10 kHz), and analyzed offline using Clampfit v10.4.2.0 (Molecular Devices). […]
Background: The patch-clamp technique gives a direct electrical read-out from membranes.

The subject of series [3] is pilocarpine-induced seizures. Description: mouse pilocarpine model of SE. In kind it is in vivo, mice. On the procedure:
(FIG. 7A) Mice were treated by pilocarpine (220 mg/kg, i.p.) for seizure induction, and behavioral seizures were scored every 5 min based a modified Racine scale. After stage-2 behavioral seizures were established (usually about 15-20 min after pilocarpine injection), mice were treated by either vehicle or compound 22 (100 mg/kg, i.p.). […] (FIG. 7B) Maximal seizure scores in mice after pilocarpine injection (p<0.0001, t-test). (FIG. 7C) Latency to partial (stage-3) seizures (p=0.0002, t-test). (FIG. 7D) Latency to generalized (stage-4) seizures (p=0.0001, t-test). (FIG. 7E) Percentage of animals that experienced stage-5 seizures or SE (p<0.0001, Fisher's exact test). (FIG. 7F) Percentage of animals survived pilocarpine-induced seizures (p=0.1649, Fisher's exact test). Data are presented as mean+/±SEM.
Mouse Pilocarpine Model of SE. Mice were first injected with methylscopolamine and terbutaline (2 mg/kg each in saline, i.p.) to minimize the unwanted effects of pilocarpine in the periphery. Thirty minutes later, pilocarpine (250 mg/kg in saline, freshly prepared, i.p.) was injected to induce seizures in mice. To determine the anti-seizure effects of compound 22, compound 22 was administered either before pilocarpine injection or after the behavioral seizures were well established. Control mice received methylscopolamine and terbutaline, followed by saline injection instead of pilocarpine. Behavioral seizures were classified using a modified Racine scale as we previously described (Table 5).^22-25 SE was defined by non-intermittent seizure activity (stage 5), which was indicated by continuous generalized clonic seizures without returning to lower-stage seizures (Table 5).

The nature of series [4]: metabolic stability in rat liver microsomes. It is filed as in vitro ADME. Conditions: rat, microsomes. The protocol: as §1
[5] abbreviates: single dose 100 mg/kg, i.p after onset of seizures (stage 2).

`CCNC(=O)c1cnn(-c2ccc(-n3ccc(Cl)c(Cl)c3=O)cc2)c1C(F)(F)F` [Compound 22]: the half-life in series [1] and in series [4] was more than 4 h in each case. Further, the inhibition at 10 µM in series [2] is less than 5%. For the same compound, the “scores of pilocarpine-induced seizures (modified Racine scale)” value in series [3] (100 mg/kg, i.p. after stage-2 seizures established, vs vehicle) is “reduced the scores of pilocarpine-induced seizures”. Also, the “electrographic seizures (electroencephalography)” value in series [3] (after pilocarpine injection) is on record as “diminished electrographic seizures”. Also, the “maximal seizure scores during a 90-minute observation” value in series [3] (setting [5]) is “decreased”. In addition, the overall seizure intensity entry in series [3] (setting [5]) is recorded as “decreased the overall seizure intensity”. Besides, the “initiation of behavioral seizures” value in series [3] (systemic treatment before pilocarpine injection) is “significantly impaired the initiation of behavioral seizures”.
